In one data set the test system is BRCA2 mRNA. As to the kind of experiment: RT-qPCR of BRCA2 mRNA in A549 cells after OLIGO transfection. The class given is cell-based, human. Conditions: 20 nM OLIGO, 24 hours post-transfection; FIG. 16. On the procedure:
Briefly, A549 cells seeded at a density of 2.0×10^5 per flask were transfected with 20 nM of OLIGO specific for each target or control OLIGO using Lipofectamine 2000 as the transfection reagent. Twenty four hours post-transfection mRNA was extracted and reverse transcribed into cDNA. RT-qPCR was performed for target mRNA levels using TaqMan reagents according to established protocols.
On the technique in general: In qPCR the cycle at which signal appears reflects the starting amount.

A further data set deals with SKOV-3 cells. As to the kind of experiment: Cell proliferation assay, ASO transfection and/or drug (cell counting). The class given is cell-based, human. Conditions: FIG. 49. Here is the method: FIG. 24 illustrates that BRCA2 inhibition sensitizes ovarian cancer and breast cancer cell lines to olaparib treatment. SKOV-3 (A) and CaOV3 (B) cells were transfected with control ASO (•) or BRCA2 ASO (∘) and then treated with three different concentrations of olaparib. Proliferation was determined by cell counting 96 hours post-transfection (*p<0.05). C: BRCA2 mRNA levels were measured by qPCR 24 hours following BRCA2 ASO transfection in SKOV-3, CaOV3, 211 H and H2052 cell lines.
E: SKOV-3 cells were transfected with control or BRCA2 ASO and then treated with olaparib 24 hours post transfection. Ninety-six hours post transfection, cells were counted, plated, and re-transfected with control ASO or BRCA2 ASO and re-treated with olaparib. Cell counts were performed 96 hours post transfection (*p<0.05). […]
A: BRCA2-wild type SKOV-3 cells (black bars), […] MCF-7 cells (white bars), and BRCA2-mutated CAPAN-1 cells (grey bars) were treated simultaneously but separately with BRCA2 ASO (20 nM). […] Ninety-six hours post-transfection, cells were counted and proliferation determined (% of proliferation after control ASO treatment).
C: SKOV-3, MCF-7 and CAPAN-1 cells were treated with two different concentrations of olaparib for 96 hours. After drug treatment they were counted and proliferation was determined as a percent of that of vehicle-treated cells. […]

The test system of the next data set is MDA-MB-231 cells. Put plainly: Cell proliferation assay, ASO transfection then drug (cell counting). Type of data set: cell-based, human. The settings on record: FIG. 49. Here is the method:
Four hours post-transfection, cells were seeded into 6 well dishes in appropriate experimental groups. […] Ninety-six hours post transfection, cells were collected and counted (Coulter Particle Counter). Proliferation was determined based on initial cell density and calculated as a percentage of ASO+vehicle treated cells.

A further data set deals with CAPAN-1 cells. As to the kind of experiment: Cell proliferation assay, ASO and/or drug (cell counting). The class given is cell-based, human. Conditions: CAPAN-1 with mutated, non-functional BRCA2; FIG. 52. Here is the method: A: BRCA2-wild type SKOV-3 cells (black bars), […] MCF-7 cells (white bars), and BRCA2-mutated CAPAN-1 cells (grey bars) were treated simultaneously but separately with BRCA2 ASO (20 nM). Due to differing growth medium requirements and to avoid fluorescent label-induced changes in drug sensitivity, cells were not co-cultured. They were treated independently, at the same time with the same materials. Ninety-six hours post-transfection, cells were counted and proliferation determined (% of proliferation after control ASO treatment).
C: SKOV-3, MCF-7 and CAPAN-1 cells were treated with two different concentrations of olaparib for 96 hours. After drug treatment they were counted and proliferation was determined as a percent of that of vehicle-treated cells.
Four hours post-transfection, cells were seeded into 6 well dishes in appropriate experimental groups. Twenty-four hours post transfection, cells were treated with olaparib (Selleckchem) at three concentrations. Ninety-six hours post transfection, cells were collected and counted (Coulter Particle Counter). Proliferation was determined based on initial cell density and calculated as a percentage of ASO+vehicle treated cells.

Data set [1] has as its system EP156T primary prostate epithelial cells. As to the kind of experiment: Veliparib after BR1 pretreatment. The class given is cell-based. The settings on record: FIG. 37.
The test system of data set [2] is EPT1 prostate epithelial cells. Put plainly: Veliparib after BR1 pretreatment. The settings on record: FIG. 37. The class given is cell-based.
The test system of data set [3] is HN-5a and HN-5a/carbo-15a head and neck squamous carcinoma cells. Put plainly: Cisplatin sensitivity after ASO transfection (cell counting, colony forming). Conditions: FIG. 51. The class given is cell-based, human. Here is the method:
HN-5a cells are parental, cisplatin-sensitive human head and neck squamous carcinoma cells, and HN-5a/carbo-10a and HN-5a/carbo-15a cells are cisplatin-resistant lines derived from HN-5a cells (Ferguson et al., Drug Metab. Dispos. 27:1399-1405, 1999). Cells were exposed to cisplatin and effects on proliferation were assessed 72 h after drug treatment. HN-5a cells (b) and HN-5a/carbo-15a cells (c) were transfected with control (black circles) or BRCA2 (white circles) ASO, treated with varying concentrations of cisplatin and then counted 96 h post-transfection. HN-5a cells (d) and […] cells (e) were transfected with control or BRCA2 ASO, treated with different concentrations of cisplatin for 6 h, and then re-plated at a density of 500 cells per well to determine colony forming ability. *Different from cells treated with control ASO using a Student's t-test (p<0.05).

For “5′-guaucuCTTGACGTuccuua-3′ (GUAUCUCTTGACGTUCCUUA; gapmer, lower-case wings modified, type not given here) [BR1]”, the “effect on BRCA2 mRNA level” value in the data set on BRCA2 mRNA is listed as “reduction in BRCA2 mRNA”. Moreover, the “effect on antiproliferative activity of cisplatin” value was “enhances the antiproliferative activity of cisplatin” with SKOV-3 cells, “enhances the antiproliferative activity of cisplatin” in the data set with MDA-MB-231 cells and “no effect on the antiproliferative activity of cisplatin” with CAPAN-1 cells. Also, the “enhancement of veliparib” value in data set [1] and in data set [2] was “little or not at all” throughout. In addition, the “effect on acquired cisplatin resistance” value in data set [3] is given as “reverses acquired cisplatin resistance”.

Source of the values: US10907159B2, “Methods of treating cancer by inhibition of DNA repair proteins using antisense based therapies” (SARISSA INC., priority 2015, dated 2021).
